From patent US20110319396A1, “BENZODIAZEPIN-2-ON DERIVATIVES” (MSD K.K., priority 2009, published 2011)

Biological target: T1, Human DGAT1 (Homo sapiens, UniProt O75907)
T1 construct: made in house; host or cells: Pichia pastoris (printed 'Pichia pastris'), vector pPICZA, membrane fraction
T1 sequence (O75907 1-488): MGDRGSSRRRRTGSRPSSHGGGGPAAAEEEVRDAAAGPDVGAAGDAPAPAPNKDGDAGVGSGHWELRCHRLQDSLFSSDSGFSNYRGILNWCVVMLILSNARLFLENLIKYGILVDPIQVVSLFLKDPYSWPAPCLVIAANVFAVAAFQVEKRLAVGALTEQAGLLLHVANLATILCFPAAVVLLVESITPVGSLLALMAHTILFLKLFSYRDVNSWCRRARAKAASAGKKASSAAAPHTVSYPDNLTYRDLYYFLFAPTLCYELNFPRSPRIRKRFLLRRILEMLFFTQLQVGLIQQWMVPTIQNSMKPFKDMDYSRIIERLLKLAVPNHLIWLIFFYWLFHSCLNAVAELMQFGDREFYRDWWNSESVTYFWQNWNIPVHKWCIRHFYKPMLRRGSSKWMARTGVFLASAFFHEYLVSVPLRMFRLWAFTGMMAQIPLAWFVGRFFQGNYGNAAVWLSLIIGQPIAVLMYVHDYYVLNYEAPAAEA
Assay: DGAT1 Inhibitory Activity Test
Format: biochemical
Conditions: DGAT1-expressed yeast membrane fraction as enzyme source; 40 μM Dioelin, 15 μM [14C]-oleoyl-CoA; room temperature for 30 minutes
Method: Human DGAT1 genes were amplified by PCR using primers described below from human cDNA library (Clontech).
The amplified human DGAT1 genes were introduced into a yeast expression vector pPICZA (Invitrogen). The resultant expression plasmid was introduced into an yeast (Pichia pastris) by electroporation to produce a recombinant yeast. The recombinant yeast was cultured in the presence of 0.5% methanol for 72 hours, and the cells were crushed using glass beads in 10 mM Tris pH 7.5, 250 mM sucrose and 1 mM EDTA, followed by adjusting the membrane fraction by centrifugation to use the adjusted membrane fraction as an enzyme source.
To the reaction liquid having the following composition: 100 mM Tris pH 7.5, 100 mM MgCl2, 100 mM sucrose, 40 μM Dioelin, 15 μM [^14C]-oleoyl-CoA, 0.25 μg of test substance, DGAT1-expressed yeast membrane fraction, was added, and the mixture having a volume of 100 μl was incubated at room temperature for 30 minutes. To the reaction liquid, 100 μl of 2-propanol/heptan/H2O (80/20/2) was added, the mixture was stirred well, followed by adding 200 of heptane and further stirring the mixture. After centrifugation, the heptane layer was collected, ethanol/0.1N NaOH/H2O (50:5:45) was added, the mixture was thus stirred, followed by recentrifuging the mixture and collecting the heptane layer. After exsiccation of the resultant heptane layer, 100 μl of Microscint 0 (PerkinElmer) was added, and the radioactivity was measured with a liquid scintillation counter. The inhibitory activity was calculated from the following formula:
Inhibition rate=100−(radioactivity in case of addition of test compound−background)/(radioactivity in case of addition of no test compound−background)×100
wherein the background means the radioactivity in case of addition of no membrane fraction.

Molecule	IC50
CN1C(=O)[C@H](NC(=O)C(C)(C)NC(=O)N2CCCCC2)CN(c2ccc(OC(F)(F)F)cc2)c2ccc(F)cc21 [Example 52, N-[2-({(3R)-8-fluoro-1-methyl-2-oxo-5-[4-(trifluoromethoxy)phenyl]-2,3,4,5-tetrahydro-1H-1,5-benzodiazepin-3-yl}amino)-1,1-dimethyl-2-oxoethyl]piperidin-1-carboxyamide]	91.1 nM
CN1C(=O)[C@H](NC(=O)C(C)(C)NC(=O)C2(C(F)(F)F)CC2)CN(c2cc(C(F)(F)F)cc(C(F)(F)F)c2)c2ccc(F)cc21 [Example 27, N-{(3R)-5-[3,5-bis(trifluoromethyl)phenyl]-8-fluoro-1-methyl-2-oxo-2,3,4,5-tetrahydro-1H-1,5-benzodiazepin-3-yl}-2-methyl-N^2-{[1-(trifluoromethyl)cyclopropyl]carbonyl}alaninamide]	16.3 nM
N-[2-({(3R)-5-[3,5-bis(trifluoromethyl)phenyl]-8-fluoro-1-methyl-2-oxo-2,3,4,5-tetrahydro-1H-1,5-benzodiazepin-3-yl}amino)-1,1-dimethyl-2-oxoethyl]-5-fluoropyridine-2-carboxyamide [Example 19]	24.1 nM
CN1C(=O)[C@H](NC(=O)C(C)(C)NC(=O)c2ccc(F)cc2)CN(c2ccc(OC(F)(F)F)cc2)c2ccc(F)cc21 [Example 1, 4-fluoro-N-[2-({(3R)-8-fluoro-1-methyl-2-oxo-5-[4-(trifluoromethoxy)phenyl]-2,3,4,5-tetrahydro-1H-1,5-benzodiazepin-3-yl}amino)-1,1-dimethyl-2-oxoethyl]benzamide]	166 nM
CN1C(=O)[C@H](NC(=O)C(C)(C)NC(=O)c2ccc(F)cc2)CN(Cc2ccc(F)c(C(F)(F)F)c2)c2ccc(F)cc21 [Example 84, 4-fluoro-N-[2-({(3R)-8-fluoro-5-[4-fluoro-3-(trifluoromethyl)benzyl]-1-methyl-2-oxo-2,3,4,5-tetrahydro-1H-1,5-benzodiazepin-3-yl}amino)-1,1-dimethyl-2-oxoethyl]benzamide]	140 nM
CN1C(=O)[C@H](NC(=O)C2(NC(=O)OC(C)(C)C)CC2)CN(Cc2ccc(OC(F)(F)F)cc2)c2ccccc21 [Example 92, tert-butyl {1-[({(3R)-1-methyl-2-oxo-5-[4-(trifluoromethoxy)benzyl]-2,3,4,5-tetrahydro-1H-1,5-benzodiazepin-3-yl}amino)carbonyl]cyclopropyl}carbamate]	20.8 nM
CN1C(=O)[C@H](NC(=O)C2(NC(=O)c3ccccc3)CC2)CN(c2ccc(OC(F)(F)F)cc2)c2ccc(F)cc21 [Example 12, N-{1-[({(3R)-8-fluoro-1-methyl-2-oxo-5-[4-(trifluoromethoxy)phenyl]-2,3,4,5-tetrahydro-1H-1,5-benzodiazepin-3-yl}amino)carbonyl]cyclopropyl}benzamide]	192 nM
CN1C(=O)[C@H](NC(=O)C(C)(C)NC(=O)NC(C)(C)C)CN(c2cc(Cl)cc(Cl)c2)c2ccc(F)cc21 [Example 47, N^2-[(tert-butylamino)carbonyl]-N-[(3R)-5-(3,5-dichlorophenyl)-8-fluoro-1-methyl-2-oxo-2,3,4,5-tetrahydro-1H-1,5-benzodiazepin-3-yl]-2-methylalanineamide]	61.3 nM
Cc1cnc(C(=O)NC(C)(C)C(=O)N[C@@H]2CN(Cc3ccc(OC(F)(F)F)cc3)c3ccc(F)cc3N(C)C2=O)cn1 [Example 98, N-[2-({(3R)-8-fluoro-1-methyl-2-oxo-5-[4-(trifluoromethoxy)benzyl]-2,3,4,5-tetrahydro-1H-1,5-benzodiazepin-3-yl}amino)-1,1-dimethyl-2-oxoethyl]-5-methylpyrazin-2-carboxyamide]	1340 nM
CN1C(=O)[C@H](NC(=O)C2(NC(=O)c3ccccc3)CC2)CN(Cc2cc(C(F)(F)F)cc(C(F)(F)F)c2)c2ccccc21 [Example 64, N-{1-[({(3R)-5-[3,5-bis(trifluoromethyl)benzyl]-1-methyl-2-oxo-2,3,4,5-tetrahydro-1H-1,5-benzodiazepin-3-yl}amino)carbonyl]cyclopropyl}benzamide]	47.3 nM
CN1C(=O)[C@H](NC(=O)C(C)(C)NC(=O)c2ccc(F)cc2)CN(c2cc(Cl)cc(Cl)c2)c2cc(F)ccc21 [Example 59, N-(2-{[(3R)-5-(3,5-dichlorophenyl)-7-fluoro-1-methyl-2-oxo-2,3,4,5-tetrahydro-1H-1,5-benzodiazepin-3-yl]amino}-1,1-dimethyl-2-oxoethyl)-4-fluorobenzamide]	40.2 nM
CN1C(=O)[C@H](NC(=O)C(C)(C)NC(=O)c2ncco2)CN(Cc2ccc(OC(F)(F)F)cc2)c2ccc(F)cc21 [Example 100, N-[2-({(3R)-8-fluoro-1-methyl-2-oxo-5-[4-(trifluoromethoxy)benzyl]-2,3,4,5-tetrahydro-1H-1,5-benzodiazepin-3-yl}amino)-1,1-dimethyl-2-oxoethyl]-1,3-oxazol-2-carboxyamide]	2230 nM
N-(2-{[(3R)-5-(3,5-dichlorophenyl)-8-fluoro-1-methyl-2-oxo-2,3,4,5-tetrahydro-1H-1,5-benzodiazepin-3-yl]amino}-1,1-dimethyl-2-oxoethyl)-1,3-thiazol-2-carboxyamide [Example 45]	29.2 nM
